Data reported in US20220273631A1, “METHOD FOR TREATING SEXUAL DYSFUNCTION” (Catalyst Pharmaceuticals, Inc., priority 2019, published 2022).

Key:
[1] = system: subject one; experiment: Female Sexual Functioning Index (FSFI) self-report before and after 4-week oral treatment; assay type: in vivo, human; conditions: for FSFI: confidence about becoming sexually aroused / FSFI: difficulty to become lubricated / FSFI: difficulty to maintain lubrication until completion / FSFI: difficulty to reach orgasm / FSFI: how often became lubricated / FSFI: how often felt sexual desire or interest / FSFI: how often felt sexually aroused / FSFI: how often maintained lubrication until completion / FSFI: how often reached orgasm / FSFI: how often satisfied with arousal / FSFI: level of sexual arousal / FSFI: level of sexual desire or interest / FSFI: satisfaction with ability to reach orgasm / FSFI: satisfaction with amount of emotional closeness with partner / FSFI: satisfaction with overall sexual life / FSFI: satisfaction with sexual relationship with partner: post-treatment FSFI
Source text: The “Female Sexual Functioning Index” or “FSFI” is a 19-item self-report inventory designed to assess female sexual function. It comprises six domains: desire (two items)], arousal (four items), lubrication (four items), orgasm, satisfaction, and pain (three items each).
The therapeutic efficacy of 3,4-diaminopyridine and its salts in the present methods can be determined by clinicians, for example, by using appropriate self-report inventories or questionnaires. In some embodiments, the therapeutic efficacy of 3,4-diaminopyridine, or a pharmaceutically acceptable thereof, in the present methods in female subjects can be assessed by the Female Sexual Functioning Index (FSFI) designed to measure sexual functioning in women. See, e.g., Rosen et al., Journal of Sex and Marital Therapy 26:191-208 (2000).
subject one self-reported their sexual functioning for the past 4 weeks using the FSFI questionnaire (“the pre-treatment FSFI”).
The subject then orally self-administered a total daily dose of 80 mg of 3,4-diaminopyridine phosphate salt for 4 weeks. The last dose of each day was self-administered at about 5:30 pm. The timing of their sexual activity, if any, was in the evening.
After the 4-week treatment period, the subject self-reported their sexual functioning for the past 4 weeks using the FSFI questionnaire (“the post-treatment FSFI”).
The subject then orally self-administered a total daily dose of 60 mg of 3,4-diaminopyridine phosphate salt for 4 weeks. The last dose of each day was self-administered at about 6 pm. The timing of their sexual activity, if any, was in the evening at 8-9 pm.
The subject then orally self-administered a total daily dose of 40 mg of 3,4-diaminopyridine phosphate salt for 4 weeks. The last dose of each day was self-administered at about 11 pm (5 mg). The timing of their sexual activity, if any, was in the morning, afternoon, and at night.

[2] = system: subject two; experiment: International Index of Erectile Function (IIEF) self-report before and after 4-week oral treatment; assay type: in vivo, human; design: key to IIEF question 1 score: able to get an erection during sexual activity / IIEF question 4 score: able to maintain erection after penetration / IIEF question 7 score: attempted intercourse satisfactory: each question scored 0-5; conditions: for IIEF question 1 score: able to get an erection during sexual activity / IIEF question 2 score: erections hard enough for penetration / IIEF question 3 score: able to penetrate partner when attempting intercourse / IIEF question 4 score: able to maintain erection after penetration / IIEF question 5 score: difficulty to maintain erection to completion of intercourse / IIEF question 6 score: attempts for sexual intercourse / IIEF question 7 score: attempted intercourse satisfactory / IIEF question 8 score: enjoyment of sexual intercourse / IIEF question 9 score: ejaculated with sexual stimulation or intercourse / IIEF question 10 score: feeling of orgasm or climax / IIEF question 11 score: how often felt sexual desire / IIEF question 12 score: level of sexual desire / IIEF question 13 score: satisfaction with overall sex life / IIEF question 14 score: satisfaction with sexual relationship with partner / IIEF question 15 score: confidence to get and keep an erection: post-treatment IIEF
Source text: The “International Index of Erectile Function” or “IIEF” is a self-report inventory consisting of 15 questions and 5 functional domains, which was developed for use in determining efficacy of treatment in controlled clinical trials. The IIEF has high sensitivity and specificity for detecting real treatment effects or the lack of treatment effects in patients with ED of broad-spectrum etiology. A score of 0-5 is awarded to each of the 15 questions that examine the 4 main domains of male sexual function: erectile function, orgasmic function, sexual desire, and intercourse satisfaction. Rosen, R., et al. (in Urology 49:822-830 (1997)) describe a study where the IIEF was tested in a series of 111 men with […] and 109 age-matched, normal volunteers. In some embodiments, the therapeutic efficacy of 3,4-diaminopyridine, or a pharmaceutically acceptable thereof, in the present methods in male subjects can be assessed by the Brief Male Sexual Function Inventory (BSFI) described by, for example, Mykletun et al., BJU International 97:316-323 (2005). In some embodiments, the Male Sexual Health Questionnaire (MSHQ) can be used to assess sexual function and satisfaction in older men with urogenital symptoms of lower urinary tract and sexual dysfunction. See, e.g., Rosen, et al., Urology 64(4):777-782 (2004). In some embodiments, the therapeutic efficacy of 3,4-diaminopyridine, or a pharmaceutically acceptable thereof, in the present methods in male subjects, can be assessed by the 15-question International Index of Erectile Function (IIEF) described by, for example, Rosen et al., Urology 49:822-830 (1997). […] The subject then orally self-administered a total daily dose of 60 mg (4 times 15 mg) of 3,4-diaminopyridine phosphate salt for 4 weeks. The last dose of each day was self-administered at about 8:30 pm. The timing of their sexual activity, if any, was at about 11:30 am (after the 11 am dose) or at about 4 pm. After the 4-week treatment period, the subject self-reported sexual functioning for the past 4 weeks using the IIEF questionnaire (“the post-treatment IIEF”). […] The subject then orally self-administered a total daily dose of 80 mg (4 times 20 mg) of 3,4-diaminopyridine phosphate salt for 4 weeks. The last dose of each day was self-administered at about 6:30 pm. The timing of their sexual activity, if any, was at about 7:30 pm. After the 4-week treatment period, the subject self-reported sexual functioning for the past 4 weeks using the IIEF questionnaire (“the post-treatment IIEF”).

[3] = Example 1 subject one, total daily dose 80 mg orally for 4 weeks
[4] = Example 2 subject one, total daily dose 60 mg orally for 4 weeks
[5] = Example 3 subject one, total daily dose 40 mg orally for 4 weeks
[6] = four week course of an effective daily dose, general statement
[7] = Example 4, subject, 60 mg daily (4 times 15 mg) orally for 4 weeks
[8] = Example 4, subject, 60 mg daily orally for 4 weeks
[9] = Example 4, subject, 60 mg daily orally for 4 weeks, maximum score 10, pre-treatment score 4
[10] = Example 5, subject, 80 mg daily (4 times 20 mg) orally for 4 weeks

SMILES: Nc1ccncc1N.O=P(O)(O)O [3,4-diaminopyridine phosphate salt]
- confidence while being treated (subject report) [1, 3]: more confident
- emotional experience with partner (subject report) [1, 3]: better
- time to reach orgasm (subject report) [1, 3]: shorter
- FSFI: confidence about becoming sexually aroused [1, 3]: very high
- FSFI: difficulty to become lubricated [1, 3]: slightly difficult
- FSFI: difficulty to maintain lubrication until completion [1, 3]: slightly difficult
- FSFI: difficulty to reach orgasm [1, 3]: not difficult
- FSFI: how often became lubricated [1, 3]: most times
- FSFI: how often felt sexual desire or interest [1, 3]: almost always or always
- FSFI: how often felt sexually aroused [1, 3]: almost always or always
- FSFI: how often maintained lubrication until completion [1, 3]: most times
- FSFI: how often reached orgasm [1, 3]: most times
- FSFI: how often satisfied with arousal [1, 3]: most times
- FSFI: level of sexual arousal [1, 3]: high
- FSFI: level of sexual desire or interest [1, 3]: moderate
- FSFI: satisfaction with ability to reach orgasm [1, 3]: very satisfied
- FSFI: satisfaction with amount of emotional closeness with partner [1, 3]: very satisfied
- FSFI: satisfaction with overall sexual life [1, 3]: very satisfied
- FSFI: satisfaction with sexual relationship with partner [1, 3]: very satisfied
- confidence while being treated (subject report) [1, 4]: more confident
- emotional experience with partner (subject report) [1, 4]: better
- time to reach orgasm (subject report) [1, 4]: shorter
- FSFI: confidence about becoming sexually aroused [1, 4]: very high
- FSFI: difficulty to become lubricated [1, 4]: not difficult
- FSFI: difficulty to maintain lubrication until completion [1, 4]: not difficult
- FSFI: difficulty to reach orgasm [1, 4]: not difficult
- FSFI: how often became lubricated [1, 4]: almost always or always
- FSFI: how often felt sexual desire or interest [1, 4]: almost always or always
- FSFI: how often felt sexually aroused [1, 4]: most times
- FSFI: how often maintained lubrication until completion [1, 4]: almost never or never
- FSFI: how often reached orgasm [1, 4]: almost always or always
- FSFI: how often satisfied with arousal [1, 4]: almost always or always
- FSFI: level of sexual arousal [1, 4]: very high
- FSFI: level of sexual desire or interest [1, 4]: very high
- FSFI: satisfaction with ability to reach orgasm [1, 4]: very satisfied
- FSFI: satisfaction with amount of emotional closeness with partner [1, 4]: very satisfied
- FSFI: satisfaction with overall sexual life [1, 4]: very satisfied
- FSFI: satisfaction with sexual relationship with partner [1, 4]: very satisfied
- orgasms experienced after taking the drug, not experienced before (subject report) [1, 5]: multiple orgasms
- FSFI: confidence about becoming sexually aroused [1, 5]: very high
- FSFI: difficulty to become lubricated [1, 5]: not difficult
- FSFI: difficulty to maintain lubrication until completion [1, 5]: not difficult
- FSFI: difficulty to reach orgasm [1, 5]: not difficult
- FSFI: how often became lubricated [1, 5]: almost always or always
- FSFI: how often felt sexual desire or interest [1, 5]: almost always or always
- FSFI: how often felt sexually aroused [1, 5]: almost always or always
- FSFI: how often maintained lubrication until completion [1, 5]: almost always or always
- FSFI: how often reached orgasm [1, 5]: almost always or always
- FSFI: how often satisfied with arousal [1, 5]: almost always or always
- FSFI: level of sexual arousal [1, 5]: very high
- FSFI: level of sexual desire or interest [1, 5]: very high
- FSFI: satisfaction with ability to reach orgasm [1, 5]: very satisfied
- FSFI: satisfaction with amount of emotional closeness with partner [1, 5]: very satisfied
- FSFI: satisfaction with overall sexual life [1, 5]: very satisfied
- FSFI: satisfaction with sexual relationship with partner [1, 5]: very satisfied
- sexual functioning of subjects suffering from sexual dysfunction ([1]; daily oral administration, general statement): overall improvement
- orgasmic ability (FSFI before and after) [1, 6]: increased orgasmic ability
- sexual desire (FSFI before and after) [1, 6]: increased sexual desire
- sexual satisfaction (FSFI before and after) [1, 6]: increased sexual satisfaction
- IIEF question 1 score: able to get an erection during sexual activity [2, 7]: 4
- IIEF question 2 score: erections hard enough for penetration [2, 7]: 4
- IIEF question 3 score: able to penetrate partner when attempting intercourse [2, 7]: 4
- IIEF question 4 score: able to maintain erection after penetration [2, 7]: 3
- IIEF question 5 score: difficulty to maintain erection to completion of intercourse [2, 7]: 4
- IIEF question 6 score: attempts for sexual intercourse [2, 7]: 3
- IIEF question 7 score: attempted intercourse satisfactory [2, 7]: 4
- IIEF question 8 score: enjoyment of sexual intercourse [2, 7]: 4
- IIEF question 9 score: ejaculated with sexual stimulation or intercourse [2, 7]: 4
- IIEF question 10 score: feeling of orgasm or climax [2, 7]: 4
- IIEF question 11 score: how often felt sexual desire [2, 7]: 5
- IIEF question 12 score: level of sexual desire [2, 7]: 4
- IIEF question 13 score: satisfaction with overall sex life [2, 7]: 4
- IIEF question 14 score: satisfaction with sexual relationship with partner [2, 7]: 4
- IIEF question 15 score: confidence to get and keep an erection [2, 7]: 4
- arousal (subject report) [2, 8]: more aroused
- overall sexual performance (subject report) [2, 8]: better
- effect on all the 5 IIEF domains of male sexual function ([2]; Example 4, subject, 60 mg daily orally for 4 weeks, Table 3): improved
- Post-Treatment Score, IIEF domain B. Orgasmic Function (questions 9 and 10) [2, 9]: 8
- Post-Treatment Score, IIEF domain E. Overall Satisfaction (questions 13 and 14) [2, 9]: 8
- Post-Treatment Score, IIEF domain C. Sexual Desire (questions 11 and 12) ([2]; Example 4, subject, 60 mg daily orally for 4 weeks, maximum score 10, pre-treatment score 5): 9
- Post-Treatment Score, IIEF domain D. Intercourse Satisfaction (questions 6-8) ([2]; Example 4, subject, 60 mg daily orally for 4 weeks, maximum score 15, pre-treatment score 5): 11
- Post-Treatment Score, IIEF domain A. Erectile Function (questions 1-5 and 15) ([2]; Example 4, subject, 60 mg daily orally for 4 weeks, maximum score 30, pre-treatment score 8): 23
- IIEF question 1 score: able to get an erection during sexual activity [2, 10]: 4
- IIEF question 2 score: erections hard enough for penetration [2, 10]: 4
- IIEF question 3 score: able to penetrate partner when attempting intercourse [2, 10]: 4
- IIEF question 4 score: able to maintain erection after penetration [2, 10]: 3
- IIEF question 5 score: difficulty to maintain erection to completion of intercourse [2, 10]: 4
- IIEF question 6 score: attempts for sexual intercourse [2, 10]: 3
- IIEF question 7 score: attempted intercourse satisfactory [2, 10]: 4
- IIEF question 8 score: enjoyment of sexual intercourse [2, 10]: 4
- IIEF question 9 score: ejaculated with sexual stimulation or intercourse [2, 10]: 4
- IIEF question 10 score: feeling of orgasm or climax [2, 10]: 4
- IIEF question 11 score: how often felt sexual desire [2, 10]: 5
- IIEF question 12 score: level of sexual desire [2, 10]: 4
- IIEF question 13 score: satisfaction with overall sex life [2, 10]: 4
- IIEF question 14 score: satisfaction with sexual relationship with partner [2, 10]: 4
- IIEF question 15 score: confidence to get and keep an erection [2, 10]: 4
- overall sexual performance (subject report) ([2]; Example 5, subject, 80 mg daily orally for 4 weeks): better
